Experiment: Stability of ADBAC solutions
Format: physicochemical
Source text: The principal antibacterial ingredient in these formulations is alkyl dimethyl benzyl ammonium chloride (ADBAC). ADBAC is effective in killing the bacteria associated with mastitis in milking animals, and is not an oxidant. It also has a slight detergent action and so assists in cleaning dirt off of the animal's teats. […] It is inexpensive and is obtained commercially in a convenient dry form under the trade name TIMSEN. In TIMSEN, urea is used as a carrier and a buffer in a weight ratio of about three parts urea to two parts ADBAC by weight. Urea will be in the sanitizing fluid when TIMSEN is used as the stock source for ADBAC, however, it will be understood that urea is not an active ingredient in these formulations.

Q: For “alkyl dimethyl benzyl ammonium chloride [ADBAC]”, which stability of solutions is on record?
A: Its stability of solutions is “stable for over a year”.

Reference: patent US20040047829A1, “Fluids for sanitizing the teats of dairy animals” (priority 2002, published 2004)
